Measurements published in patent US11059800B2, “Dehydroleucodine derivatives and uses thereof” (Bioventures, LLC, priority 2013, dated 2021).

What was measured:
KG-1 = test: Cytotoxicity, annexin V/7-AAD viability by flow cytometry, KG-1; format: cell-based, human; conditions: KG-1, 48 hours, drug range tested 1.25-160 μM
Protocol: In order to assess the structure-activity relationship of DHL and its derivatives, DHL and its derivatives were evaluated against eight human leukemia cell lines. Cell lines were cultured in Iscove's Modified Dulbecco's Medium (IMDM) supplemented with 10%˜20% fetal bovine serum (FBS) according to culture conditions indicated by ATCC and 1% penicillin/streptomycin (Pen/Strep) at 37° C. and 5% CO2. […] Cell viability was determined after incubating for 48 hours.

Kasumi-1 = test: Cytotoxicity, annexin V/7-AAD viability by flow cytometry, Kasumi-1; format: cell-based, human; conditions: Kasumi-1, 48 hours, drug range tested 1.25-160 μM
Protocol: (§1) In order to assess the structure-activity relationship of DHL and its derivatives, DHL and its derivatives were evaluated against eight human leukemia cell lines. Cell lines were cultured in Iscove's Modified Dulbecco's Medium (IMDM) supplemented with 10%˜20% fetal bovine serum (FBS) according to culture conditions indicated by ATCC and 1% penicillin/streptomycin (Pen/Strep) at 37° C. and 5% CO2. The cells were seeded into 96-well plates and kept at a concentration of 0.5 million cells per mL. The samples were treated with DHL, Leucodine, DHL-Morpholine, DHL-Proline, DHL-Piperidine, and PTL at varying concentrations in triplicates. Cell viability was determined after incubating for 48 hours. The cells were stained with annexin V-fluorescein isothiocyanate or phycoeritrine (FITC/PE) and 7-aminoactinomycin (7-AAD) to detect phosphatidylserine exposition and cell permeability, respectively. At least 50,000 events were recorded per condition on either an LSR-II or LSR-Fortessa flow cytometer (BD Biosciences). Data analysis was conducted using FlowJo 9.6 software for Mac OS X (TreeStar). Cells that were negative for annexin V and 7-AAD were scored as viable.

MOLM-13 = test: Cytotoxicity, annexin V/7-AAD viability by flow cytometry, MOLM-13; format: cell-based, human; conditions: MOLM-13, 48 hours, drug range tested 1.25-160 μM
Protocol: as §1

U-937 = test: Cytotoxicity, annexin V/7-AAD viability by flow cytometry, U-937; format: cell-based, human; conditions: U-937, 48 hours, drug range tested 1.25-160 μM
Protocol: as §1

HL-60 = test: Cytotoxicity, annexin V/7-AAD viability by flow cytometry, HL-60; format: cell-based, human; conditions: HL-60, 48 hours, drug range tested 1.25-160 μM
Protocol: as §1

THP-1 = test: Cytotoxicity, annexin V/7-AAD viability by flow cytometry, THP-1; format: cell-based, human; conditions: THP-1, 48 hours, drug range tested 1.25-160 μM
Protocol: as §1

TUR = test: Cytotoxicity, annexin V/7-AAD viability by flow cytometry, TUR; format: cell-based, human; conditions: 48 hours, drug range tested 1.25-160 μM
Protocol: as §1

MV4-11 = test: Cytotoxicity, annexin V/7-AAD viability by flow cytometry, MV4-11; format: cell-based, human; conditions: MV4-11, 48 hours, drug range tested 1.25-160 μM
Protocol: as §1

HMOX1 (Heme oxygenase 1) = test: Quantitative PCR of HMOX1 in MOLM-13 or MV-411 cells; format: cell-based; conditions: 20 μM, 6 hours, MOLM-13 and MV-411 cells
Protocol: (§2) (FIG. 8A) Graphical representation of the fold changes of HMOX-1 in MOLM-13 cells. Cells were seeded at 0.5 million cells per milliliter and subject to 20 μM of DHL, leucodine, DHL-proline, DHL-piperidine, DHL-morpholine, or parthenolide for 6 hours. RNA was then extracted and quantitative PCR was performed. Experiments were performed in triplicates. Lines represent mean for each specimen, with error bars representing the SD. Fold change was calculated by the delta-delta Ct method. […] (FIG. 8D) Immunoblot for MOLM-13 cells after 6 hours of treatment with either DHL or PTL with 10 or 20 μM. Blot was probed for phospho-p65 and p65 antibodies. Total p65 is shown as the loading control.
(§3) (FIG. 9A) Graphical representation of the fold changes of HMOX-1 in MV-411 cells. Cells were seeded at 0.5 million cells per milliliter and subject to 20 μM of DHL, leucodine, DHL-proline, DHL-piperidine, DHL-morpholine, or parthenolide for 6 hours. RNA was then extracted and quantitative PCR was performed. Experiments were performed in triplicates. Lines represent mean for each specimen, with error bars representing the SD. Fold change was calculated by the delta-delta Ct method. (FIG. 9B) Graphical representation of the fold changes of HSPA1A in MV-411 cells, with the same experimental setup and analysis as FIG. […].
(§4) To compare these intracellular effects of DHL and its derivatives, quantitative PCR was performed (FIG. 8 and FIG. 9). MOLM-13 or MV-411 cells were seeded at 0.5 million cells per milliliter. Cells were treated for 6 hours with 20 μM of DHL, Leucodine, DHL-Morpholine, DHL-Proline, DHL-Piperidine or PTL, and then collected. Total RNA was extracted using the Qiashredder and Qiagen Rneasy Mini kits. […] Quantitative PCR was performed using probes for HMOX-1 (Hs01110251_m1), HSPA1A (Hs00359163_s1), and NFKB1 (Hs00765730_m1). […] Single-plex real-time PCR was performed in triplicates in a StepOne plus RealTime PCR system and analyzed with the StepOne Software. Fold change was calculated using the 2-DDCT method described by Livak and Schmittgen.

[1] = tested on: eight human leukemia cell lines
Protocol: Cell lines were cultured in Iscove's Modified Dulbecco's Medium (IMDM) supplemented with 10%˜20% fetal bovine serum (FBS) according to culture conditions indicated by ATCC and 1% penicillin/streptomycin (Pen/Strep) at 37° C. and 5% CO2. The cells were seeded into 96-well plates and kept at a concentration of 0.5 million cells per mL. […] Cell viability was determined after incubating for 48 hours. The cells were stained with annexin V-fluorescein isothiocyanate or phycoeritrine (FITC/PE) and 7-aminoactinomycin (7-AAD) to detect phosphatidylserine exposition and cell permeability, respectively. At least 50,000 events were recorded per condition on either an LSR-II or LSR-Fortessa flow cytometer (BD Biosciences). Data analysis was conducted using FlowJo 9.6 software for Mac OS X (TreeStar). Cells that were negative for annexin V and 7-AAD were scored as viable.

HSPA1A = test: Quantitative PCR of HSPA1A in MOLM-13 or MV-411 cells; format: cell-based; conditions: 20 μM, 6 hours, MOLM-13 and MV-411 cells
Protocol: as §2, §3, §4

NF-κB = test: Quantitative PCR of NF-κB transcript in MOLM-13 and MV-411 cells; format: cell-based; conditions: 20 μM, 6 hours
Protocol: as §2
as §4, with “collected.” for “collected. Total RNA was extracted using the Qiashredder and Qiagen Rneasy Mini kits.”

SMILES | LD50 (KG-1) | LD50 (Kasumi-1) | LD50 (MOLM-13) | LD50 (U-937) | LD50 (HL-60) | LD50 (THP-1) | LD50 (TUR) | LD50 (MV4-11) | HMOX1 expression, fold change (HMOX1 (Heme oxygenase 1)) | anti-leukemic activity / in vitro cytotoxicity [1] | HSPA1A expression, fold change (HSPA1A) | NF-κB transcript levels (NF-κB)
CC1=CC(=O)C2=C(C)CCC3C(CN4CCCCC4)C(=O)OC3C12 (stereo not drawn) [DHL-Piperidine] | 182 µM | >160 µM | 52.3 µM | >160 µM | 96.5 µM | 59.3 µM | >160 µM | 66.9 µM | – | – | – | –
CC1=CC(=O)C2=C(C)CC[C@@H]3[C@H](OC(=O)[C@H]3C)[C@@H]12 [Leucodine, leucodine] | >160 µM | >160 µM | >160 µM | >160 µM | >160 µM | 121 µM | 105 µM | >160 µM | upregulated | not found to be active | upregulated | slightly downregulated
CC1=CC(=O)C2=C(C)CCC3C(CN4CCOCC4)C(=O)OC3C12 (stereo not drawn) [DHL-Morpholine] | 129 µM | >160 µM | >160 µM | 74.7 µM | 166 µM | 54.4 µM | >160 µM | 21.1 µM | – | – | – | –
CC1=CC(=O)C2=C(C)CCC3C(CN4CCCC4C(=O)O)C(=O)OC3C12 (stereo not drawn) [DHL-Proline] | 97.7 µM | 28.1 µM | 20.6 µM | 33.0 µM | 50.2 µM | 26.7 µM | 35.9 µM | 23.3 µM | upregulated HMOX1 and HSPA1A the most | most potent derivative | upregulated HMOX1 and HSPA1A the most | –
